From patent US10010581B2, “Syndecan peptides and polypeptides and uses thereof” (Wisconsin Alumni Research Foundation, priority 2012, dated 2018)

Columns and labels:
[1] = system: MCF10A cells; test: total cell number, CellTiterGLO assay; assay type: cell-based, human; conditions: single peptide, concentrations as high as 30 μM, 4 or 7 days
Method: (§1) FIGS. 11A-F. SSTN treatment of normal (nontransformed) epithelial cells versus carcinoma (transformed) cells. Cells are plated for one day, then treated with either 3-30 μM […] (SSTN-I), 3-30 μM […] (SSTN-E), 3-30 μM SSTNHER2 (SSTN-H) or combinations of the three peptides, each at 10 μM to test their additive effect. […] The treatment times are chosen to reflect only modest effects of the peptides used singly, so that the more pronounced effect of peptides used in combination can still be observed. Treatment for longer times leads to significant cell death observed even with single peptides alone. (FIG. 11A) HaCat human keratinocytes, an example of a normal stratified epithelium, (FIG. 11B) UM-SCC47 cells, a squamous cell carcinoma derived from the tongue of a patient (a stratrified epithelium), (FIG. 11C) SCC25 cells, another squamous cell carcinoma from the tongue of a patient (FIG. 11D) MCF10A cells, a normal human breast epithelium, (FIG. 11E) MDA-MB-468 cells, a triple-negative (TN) breast carcinoma, and (FIG. 11F) SKBr3 cells, a HER2+ human breast carcinoma. Note that the “triple-negative” designation of the MDA-MB-468 carcinoma means the cells are negative for progesterone receptor, estrogen receptor and the HER2 kinase. Thus, they would not be expected to rely on HER2. Indeed, these cells are not affected by SSTNHER2, either alone or when combined with the other peptides. […] Nonetheless, the other three carcinomas are inhibited by SSTNHER2, and this is enhanced when SSTNHER2 is combined with the other SSTN peptides, leading to obvious cell death (e.g., the number of cells at the end of the experiment are less than at the beginning).
(§2) Cells (5×10^4/well in a 24-well plate) were treated with activated TAT-peptide ([…]; (SEQ ID NO:18)), inactivated TAT-peptide ([…]; (SEQ ID NO:19)) or GST fusion protein (GST, GST-S1ED or GST-S4ED). Cells death was observed by trypan blue staining or Cell Tilter-GLO Cell Viability Assay (Promega).

[2] = system: MDA-MB-468 cells; test: total cell number, CellTiterGLO assay; assay type: cell-based, human; conditions: 4 or 7 days
Method: as §1, §2

[3] = system: SKBr3 cells; test: total cell number, CellTiterGLO assay; assay type: cell-based, human; conditions: 4 or 7 days
Method: as §1, §2

[4] = system: UM-SCC47 cells; test: total cell number, CellTiterGLO assay; assay type: cell-based, human; conditions: 4 or 7 days
Method: as §1, §2

[5] = system: SCC25 cells; test: total cell number, CellTiterGLO assay; assay type: cell-based, human; conditions: 4 or 7 days
Method: as §1, §2

[6] = system: HaCat human keratinocytes; test: total cell number, CellTiterGLO assay; assay type: cell-based; conditions: single peptide, concentrations as high as 30 μM, 4 or 7 days
Method: FIGS. 11A-F. SSTN treatment of normal (nontransformed) epithelial cells versus carcinoma (transformed) cells. Cells are plated for one day, then treated with either 3-30 μM […] (SSTN-I), 3-30 μM […] (SSTN-E), 3-30 μM SSTNHER2 (SSTN-H) or combinations of the three peptides, each at 10 μM to test their additive effect. […] The treatment times are chosen to reflect only modest effects of the peptides used singly, so that the more pronounced effect of peptides used in combination can still be observed. Treatment for longer times leads to significant cell death observed even with single peptides alone. (FIG. 11A) HaCat human keratinocytes, an example of a normal stratified epithelium, (FIG. 11B) UM-SCC47 cells, a squamous cell carcinoma derived from the tongue of a patient (a stratrified epithelium), (FIG. 11C) SCC25 cells, another squamous cell carcinoma from the tongue of a patient (FIG. 11D) MCF10A cells, a normal human breast epithelium, (FIG. 11E) MDA-MB-468 cells, a triple-negative (TN) breast carcinoma, and (FIG. 11F) SKBr3 cells, a HER2+ human breast carcinoma. Note that the “triple-negative” designation of the MDA-MB-468 carcinoma means the cells are negative for progesterone receptor, estrogen receptor and the HER2 kinase. Thus, they would not be expected to rely on HER2. Indeed, these cells are not affected by SSTNHER2, either alone or when combined with the other peptides. […]

[7] = system: HaCat keratinocytes; test: scratch wound haptotaxis induced by LPA and clustering of α6β4 integrin; assay type: cell-based, human; conditions: LPA + α6β4 clustered with mAb 3E1 and secondary antibody, AG825 10 μM, Iressa 1 μM
Description: FIG. 6A-D. Sdc1 is required for HER2/α6β4-dependent HaCat keratinocyte migration. (FIG. 6A) HaCat keratinocytes deposit laminin 332 (LN332) and migrate upon this using α3β1 and α6β4 integrins to close a scratch wound in the monolayer when stimulated to undergo chemotaxis in response to EGF. Alternatively, migration is induced by clustering the integrin (using mAb 3E1 against the integrin+a secondary antibody to cluster the first antibody and thus the entire complex) in the presence of LPA. This mimics the clustering that occurs when the cells engage LN332 and is referred to as haptotaxis. […] (FIG. 6B) Haptotaxis, stimulated by LPA and clustering of α6β4 integrin as described in FIG. 6A, is blocked by antibody directed against the α3β1 integrin or by BM165 which targets the binding site for α3β1 in LN332. […] (FIG. 6C) The potential roles of Sdc1 or Sdc4 in haptotaxis is tested by silencing their expression, together with attempting to rescue with either wild-type mouse Sdc1 or Sdc4, or mouse mutants unable to engage the β4 cytoplasmic domain (mSdc1ΔC2 or mSdc4ΔC2). Haptotaxis is blocked by silencing endogenous Sdc1, and this cannot be rescued by Sdc1ΔC2 that fails to engage the α6β4 integrin. Silencing Sdc4 also disrupts migration, but this traces to its role in activity of the α3β1 integrin and not a role in engaging the α6β4 integrin, as it can be rescued by mSdc4ΔC2 that fails to associate with the α6β4 integrin. (FIG. 6D) Immunoprecipitation of either native mSdc4 or mSdc4[…]C2 confirms that the mSdc4ΔC2 mutant no longer associates with the α6β4 integrin, but does with the α3β1 integrin. […]
HaCat or MCF10A cells were grown to confluence on 48 well-plates were starved for 6 hr by serum deprivation followed by introduction of a scratch wound in the monolayer using 200 μl pipette tip. […] Images were acquired using a PlanApo 20 (0.75 numerical aperture) objective and a Photometrics CoolSnap ES camera on a Nikon Eclipse TE2000U microscopy system and wound closure quantified. […]

Question: With “SSTNHER2: synthetic peptide of human Sdc1 ectodomain amino acids 210-240 (SEQ ID NO:3), inhibits Sdc1 coupling of HER2 to α6β4 integrin (DFTFETSGENTAVVAVEPDRRNQSPVDQGAT; listed as Homo sapiens)” as the substance, how does the growth or survival [1] read?
Answer: The growth or survival was “no effect”.

Question: What about the proliferation and survival ([2]; MDA-MB-468 (triple-negative), single peptide 3-30 μM) of the same substance?
Answer: The proliferation and survival was “no effect”.

Question: What about the “total cell number, combination with the other SSTN peptides” value (from here on “total cell number, combination”) ([2]; MDA-MB-468, each peptide at 10 μM) of the same substance?
Answer: Its value is “not affected”.

Question: And the “total cell number, combination” value ([3]; each peptide at 10 μM)?
Answer: The value was “enhanced”.

Question: And the proliferation and survival ([3]; single peptide 3-30 μM)?
Answer: Its proliferation and survival is “target the proliferation and survival”.

Question: What about the “total cell number, combination” value ([4]; each peptide at 10 μM) of the same substance?
Answer: The value was “enhanced”.

Question: What about the proliferation and survival ([4]; single peptide 3-30 μM) of the same substance?
Answer: Its proliferation and survival is “target the proliferation and survival”.

Question: What about the “total cell number, combination” value ([5]; each peptide at 10 μM) of the same substance?
Answer: The value was “enhanced”.

Question: What about the proliferation and survival ([5]; single peptide 3-30 μM) of the same substance?
Answer: The proliferation and survival was “target the proliferation and survival”.

Question: And the growth or survival [6]?
Answer: The growth or survival was “no effect”.

Question: And the “haptotaxis (migration to close a scratch wound)” value [7]?
Answer: Its value is “blocks haptotaxis”.
